Where a name gives a salt, the structure may show the parent alone.
Columns and labels:
NaV1.6 [1] = target: T1, NaV1.6 (Homo sapiens (Human), UniProt Q9UQD0); assay: Sodium Influx Assay (Flux), NaV1.6; settings: read-out: Flux NaV1.6 IC50; Trex HEK293 cells, ANG2 dye; arithmetic mean
NaV1.1 = NaV1.1 (Homo sapiens (Human), UniProt P35498); assay: Sodium Influx Assay (Flux), NaV1.1; format: cell-based; settings: Trex HEK293 cells, ANG2 dye; arithmetic mean
NaV1.5 = NaV1.5 (Homo sapiens (Human), UniProt Q14524); assay: Sodium Influx Assay (Flux), NaV1.5; settings: read-out: Flux NaV1.5 IC50; Trex HEK293 cells, ANG2 dye; arithmetic mean
NaV1.6 [2] = target: T1, NaV1.6; assay: Electrophysiological Assay (EP), patch voltage clamp, NaV1.6; format: cell-based; settings: HEK-293 cells, whole-cell patch clamp, inactivated state; arithmetic mean
From the text: Patch voltage clamp electrophysiology allows for the direct measurement and quantification of block of voltage-gated sodium channels (Nay's), and allows the determination of the time-and voltage-dependence of block which has been interpreted as differential binding to the resting, open, and inactivated states of the sodium channel (Hille, B., Journal of General Physiology (1977), 69: 497-515).
NaV1.1, NaV1.5 and NaV1.6 cDNAs (NM_001165964 (SCN1A), NM_000335 (SCN5A) and NM_014191 (SCN8A), respectively) were stably expressed in HEK-293 cells.
Sodium currents were measured using the patch clamp technique in the whole-cell configuration using either a PatchXpress automated voltage clamp or manually using an Axopatch 200B (Axon Instruments) or Model 2400 (A-M systems) amplifier.
The manual voltage clamp protocol was as follows: Borosilicate glass micropipettes were fire-polished to a tip diameter yielding a resistance of 2-4 Mohms in the working solutions. […] In some studies, the external sodium was reduced by equimolar replacement with choline. Osmolarity in the CsF internal and NaCl external solutions was adjusted to 300 mOsm/kg and 310 mOsm/kg with glucose, respectively. All recordings were performed at ambient temperature in a bath chamber with a volume of 150 μL. Control sodium currents were measured in 0.5% DMSO. Controls and representative compounds of the invention were applied to the recording chamber through a 4-pinch or 8-pinch valve bath perfusion system manufactured by ALA Scientific Instruments.
Currents were recorded at 40 kHz sampling frequency, filtered at […], and stored using a Digidata-1322A analogue/digital interface with the pClamp software (Axon Instruments). Series resistance compensation was applied (60-80%). […] All statistics in this study are given as mean±SD.
The membrane potential was maintained at a voltage where inactivation of the channel is complete. The voltage is then stepped back to a very negative (Vhold=−150 mV) voltage for 20 ms and then a test pulse is applied to quantify the compound block. The 20 ms brief repolarization was long enough for compound-free channels to completely recover from fast inactivation, but the compound-bound channels recovered more slowly such that negligible recovery could occur during this interval. The percent decrease in sodium current following wash-on of compound was taken as the percent block of sodium channels.

Chain of NaV1.5 (Q14524 other isoform, or with tags, fused parts or gaps): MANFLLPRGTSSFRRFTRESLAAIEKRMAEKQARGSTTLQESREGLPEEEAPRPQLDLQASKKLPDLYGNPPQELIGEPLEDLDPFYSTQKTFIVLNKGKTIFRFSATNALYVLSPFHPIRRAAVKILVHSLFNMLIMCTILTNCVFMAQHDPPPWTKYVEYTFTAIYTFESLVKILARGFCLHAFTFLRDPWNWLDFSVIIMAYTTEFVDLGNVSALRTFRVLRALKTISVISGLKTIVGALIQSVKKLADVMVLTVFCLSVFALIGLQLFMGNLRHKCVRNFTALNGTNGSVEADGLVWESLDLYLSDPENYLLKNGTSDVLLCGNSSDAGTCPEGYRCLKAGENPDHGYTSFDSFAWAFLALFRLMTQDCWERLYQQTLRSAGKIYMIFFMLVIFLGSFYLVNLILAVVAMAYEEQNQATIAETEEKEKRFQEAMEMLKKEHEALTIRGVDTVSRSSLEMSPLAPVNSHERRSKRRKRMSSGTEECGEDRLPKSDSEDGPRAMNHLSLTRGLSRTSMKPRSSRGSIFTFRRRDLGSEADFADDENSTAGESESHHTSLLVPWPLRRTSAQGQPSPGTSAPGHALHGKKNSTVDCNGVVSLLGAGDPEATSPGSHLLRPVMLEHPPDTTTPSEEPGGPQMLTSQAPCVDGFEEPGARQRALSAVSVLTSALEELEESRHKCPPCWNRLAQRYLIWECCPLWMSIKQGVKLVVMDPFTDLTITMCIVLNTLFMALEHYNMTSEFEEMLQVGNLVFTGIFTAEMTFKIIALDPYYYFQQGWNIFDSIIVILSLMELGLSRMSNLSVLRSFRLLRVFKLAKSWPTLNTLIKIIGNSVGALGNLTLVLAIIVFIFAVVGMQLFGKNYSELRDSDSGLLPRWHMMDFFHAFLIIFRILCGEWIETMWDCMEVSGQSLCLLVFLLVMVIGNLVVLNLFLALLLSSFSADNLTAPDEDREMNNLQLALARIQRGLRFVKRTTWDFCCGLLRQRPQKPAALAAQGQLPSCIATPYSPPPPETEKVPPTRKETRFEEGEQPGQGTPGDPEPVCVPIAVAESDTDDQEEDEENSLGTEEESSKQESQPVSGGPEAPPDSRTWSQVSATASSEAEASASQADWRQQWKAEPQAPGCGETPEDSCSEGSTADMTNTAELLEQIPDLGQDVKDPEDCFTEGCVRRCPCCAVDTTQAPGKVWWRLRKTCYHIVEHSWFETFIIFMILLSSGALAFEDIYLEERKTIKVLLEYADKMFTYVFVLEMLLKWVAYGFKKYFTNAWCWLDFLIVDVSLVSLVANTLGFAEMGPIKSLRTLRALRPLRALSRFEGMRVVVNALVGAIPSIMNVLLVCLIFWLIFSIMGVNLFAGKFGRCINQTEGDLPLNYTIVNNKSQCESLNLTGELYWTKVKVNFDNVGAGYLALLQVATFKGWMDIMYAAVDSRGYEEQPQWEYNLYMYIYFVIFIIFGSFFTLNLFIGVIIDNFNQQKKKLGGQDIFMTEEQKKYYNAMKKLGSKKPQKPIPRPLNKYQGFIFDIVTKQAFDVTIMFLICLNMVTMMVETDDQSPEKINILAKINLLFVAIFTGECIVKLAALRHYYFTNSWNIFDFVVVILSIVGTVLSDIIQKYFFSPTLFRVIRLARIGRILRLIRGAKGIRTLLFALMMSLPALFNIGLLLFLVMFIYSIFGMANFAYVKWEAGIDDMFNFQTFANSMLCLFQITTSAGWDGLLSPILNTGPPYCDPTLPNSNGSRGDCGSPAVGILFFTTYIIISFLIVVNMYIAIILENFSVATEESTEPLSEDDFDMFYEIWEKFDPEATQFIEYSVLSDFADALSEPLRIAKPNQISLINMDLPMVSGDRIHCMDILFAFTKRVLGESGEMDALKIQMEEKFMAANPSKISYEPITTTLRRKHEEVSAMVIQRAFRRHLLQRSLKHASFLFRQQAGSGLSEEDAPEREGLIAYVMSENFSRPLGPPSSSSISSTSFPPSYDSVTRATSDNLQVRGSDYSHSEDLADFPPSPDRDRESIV
T1 sequence (Q9UQD0 whole entry): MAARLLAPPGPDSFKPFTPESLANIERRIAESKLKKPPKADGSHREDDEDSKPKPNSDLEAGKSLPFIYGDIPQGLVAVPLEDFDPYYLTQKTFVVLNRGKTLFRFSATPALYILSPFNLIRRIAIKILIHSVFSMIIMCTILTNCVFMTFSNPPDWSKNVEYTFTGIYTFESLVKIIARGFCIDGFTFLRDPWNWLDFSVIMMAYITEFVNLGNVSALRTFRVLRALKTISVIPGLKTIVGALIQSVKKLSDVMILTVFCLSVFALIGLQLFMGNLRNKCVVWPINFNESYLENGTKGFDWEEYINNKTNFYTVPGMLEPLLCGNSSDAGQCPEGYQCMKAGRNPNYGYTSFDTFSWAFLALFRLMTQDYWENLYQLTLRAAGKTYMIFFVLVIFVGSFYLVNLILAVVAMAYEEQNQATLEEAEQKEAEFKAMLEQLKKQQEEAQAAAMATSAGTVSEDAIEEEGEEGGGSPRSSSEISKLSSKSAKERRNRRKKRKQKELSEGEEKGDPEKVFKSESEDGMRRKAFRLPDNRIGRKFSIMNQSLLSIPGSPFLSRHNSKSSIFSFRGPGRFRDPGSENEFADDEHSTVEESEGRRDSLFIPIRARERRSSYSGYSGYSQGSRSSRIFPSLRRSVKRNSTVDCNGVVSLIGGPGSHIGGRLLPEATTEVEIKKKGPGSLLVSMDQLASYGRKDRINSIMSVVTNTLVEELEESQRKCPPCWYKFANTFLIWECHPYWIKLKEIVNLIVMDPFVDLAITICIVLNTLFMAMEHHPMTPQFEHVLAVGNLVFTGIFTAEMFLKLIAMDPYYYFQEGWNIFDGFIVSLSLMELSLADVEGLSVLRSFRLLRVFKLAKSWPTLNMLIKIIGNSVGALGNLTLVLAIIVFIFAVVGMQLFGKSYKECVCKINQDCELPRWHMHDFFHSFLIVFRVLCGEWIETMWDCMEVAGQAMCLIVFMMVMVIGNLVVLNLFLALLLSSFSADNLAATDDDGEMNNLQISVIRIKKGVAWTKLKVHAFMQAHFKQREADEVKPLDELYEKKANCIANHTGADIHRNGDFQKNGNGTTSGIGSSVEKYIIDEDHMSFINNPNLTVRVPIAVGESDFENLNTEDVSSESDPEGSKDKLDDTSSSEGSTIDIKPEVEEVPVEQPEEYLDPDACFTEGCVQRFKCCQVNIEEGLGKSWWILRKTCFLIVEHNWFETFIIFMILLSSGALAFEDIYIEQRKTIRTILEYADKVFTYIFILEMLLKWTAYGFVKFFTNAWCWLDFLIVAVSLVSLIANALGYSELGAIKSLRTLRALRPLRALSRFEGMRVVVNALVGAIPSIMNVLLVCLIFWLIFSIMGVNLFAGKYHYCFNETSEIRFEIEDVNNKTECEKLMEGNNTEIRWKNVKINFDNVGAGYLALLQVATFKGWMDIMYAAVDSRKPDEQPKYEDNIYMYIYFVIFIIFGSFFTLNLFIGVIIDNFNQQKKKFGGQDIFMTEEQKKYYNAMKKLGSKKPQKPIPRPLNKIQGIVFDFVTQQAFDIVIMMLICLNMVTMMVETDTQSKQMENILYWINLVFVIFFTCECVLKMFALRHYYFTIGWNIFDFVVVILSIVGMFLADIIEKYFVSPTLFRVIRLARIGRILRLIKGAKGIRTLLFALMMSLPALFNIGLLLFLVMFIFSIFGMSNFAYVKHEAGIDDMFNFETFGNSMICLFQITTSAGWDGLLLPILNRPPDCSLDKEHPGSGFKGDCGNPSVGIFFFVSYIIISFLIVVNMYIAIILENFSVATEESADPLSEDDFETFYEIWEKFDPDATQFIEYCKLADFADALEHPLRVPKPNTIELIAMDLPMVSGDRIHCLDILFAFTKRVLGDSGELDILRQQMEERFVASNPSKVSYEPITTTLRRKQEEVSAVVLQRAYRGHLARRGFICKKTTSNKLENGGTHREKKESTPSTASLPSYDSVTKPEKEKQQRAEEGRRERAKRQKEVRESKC

| Structure (SMILES) | IC50 (NaV1.6 [1]) [µM] | IC50 (NaV1.1) [µM] | IC50 (NaV1.5) [µM] | IC50 (NaV1.6 [2]) [µM] |
| --- | --- | --- | --- | --- |
| O=S(=O)(Nc1nccs1)c1cc(Cl)c(OC2CCN(Cc3ccccc3)CC2)cc1F [Example 47, 4-((1-benzylpiperidin-4-yl)oxy)-5-chloro-2-fluoro-N-(thiazol-2-yl)benzenesulfonamide 2,2,2-trifluoroacetate] | 0.943 | 12.3 | 15.9 | 0.479 |
| O=S(=O)(Nc1nccs1)c1ccc(OC2CCN(Cc3ccccc3)CC2)c(Cl)c1 [Example 95, 4-(1-benzylpiperidin-4-yloxy)-3-chloro-N-(thiazol-2-yl)benzenesulfonamide 2,2,2-trifluoroacetate] | 0.416 |  | 20.9 | 0.177 |
| O=S(=O)(Nc1ncns1)c1ccc(N[C@H]2CCN(Cc3ccccc3)C2)c(Cl)c1 [Example 67, (S)-4-((1-benzylpyrrolidin-3-yl)amino)-3-chloro-N-(1,2,4-thiadiazol-5-yl)benzenesulfonamide 2,2,2-trifluoroacetate] | 0.31 | > 30 | > 30 | 0.453 |
| O=S(=O)(Nc1ncns1)c1ccc(O[C@H]2CCN(Cc3ccccc3)C2)c(Cl)c1 [Example 97, (S)-4-(1-benzylpyrrolidin-3-yloxy)-3-chloro-N-(1,2,4-thiadiazol-5-yl)benzenesulfonamide 2,2,2-trifluoroacetate] | 1.45 | > 30 | > 30 | 2.94 |
| CC1(C)CN(Cc2ccccc2)CCC1Oc1ccc(S(=O)(=O)Nc2ncns2)cc1Cl (stereo not shown) [Example 2, 4-((1-benzyl-3,3-dimethylpiperidin-4-yl)oxy)-3-chloro-N-(1,2,4-thiadiazol-5-yl)benzenesulfonamide 2,2,2-trifluoroacetate] | 1.36 | 22.5 | 6.33 | 0.381 |
| CN(c1ccc(S(=O)(=O)Nc2ncns2)cc1Cl)[C@H]1CCN(Cc2cccc(C(F)F)c2)C1 [Example 31, (S)-3-chloro-4-((1-(3-(difluoromethyl)benzyl)pyrrolidin-3-yl)(methyl)amino)-N-(1,2,4-thiadiazol-5-yl)benzenesulfonamide] | 0.013 | 27.7 | > 30 | 0.029 |
| Cc1c(N(C)[C@H]2CCN(Cc3ccccc3)C2)cc(F)c(S(=O)(=O)Nc2ncns2)c1F [Example 295, (S)-4-((1-benzylpyrrolidin-3-yl)(methyl)amino)-2,6-difluoro-3-methyl-N-(1,2,4-thiadiazol-5-yl)benzenesulfonamide] | 0.009 | 17.1 | 25.9 | 0.001 |
| Cc1c(O[C@@]2(C)CCN(Cc3ccccc3)C2)cc(F)c(S(=O)(=O)Nc2cscn2)c1F [Example 158, (S)-4-((1-benzyl-3-methylpyrrolidin-3-yl)oxy)-2,6-difluoro-3-methyl-N-(thiazol-4-yl)benzenesulfonamide formate] | 0.009 | 24.2 | > 30 | 0.008 |
| C[C@H](c1ccccc1)N1CCC(Oc2ccc(S(=O)(=O)Nc3nccs3)cc2Cl)CC1 [Example 55, (R)-3-chloro-4-((1-(1-phenylethyl)piperidin-4-yl)oxy)-N-(thiazol-2-yl)benzenesulfonamide 2,2,2-trifluoroacetate] | 0.187 |  |  | 0.032 |
| Cc1cc(C)cc(CN2CC[C@H](Oc3ccc(S(=O)(=O)Nc4ncns4)cc3Cl)C2)c1 [Example 99, (S)-3-chloro-4-(1-(3,5-dimethylbenzyl)pyrrolidin-3-yloxy)-N-(1,2,4-thiadiazol-5-yl)benzenesulfonamide 2,2,2-trifluoroacetate] | 1.41 | > 30 | > 30 | 4.44 |
| O=S(=O)(Nc1ncns1)c1ccc(NC2CCN(Cc3ccccc3)C2)c(Cl)c1 (stereo not shown) [Example 26, 4-((1-benzylpyrrolidin-3-yl)amino)-3-chloro-N-(1,2,4-thiadiazol-5-yl)benzenesulfonamide trifluoroacetate] | 0.235 | 15 | > 30 | 0.164 |
| O=S(=O)(Nc1ncns1)c1ccc(N[C@@H]2CCN(Cc3ccccc3)C2)c(Cl)c1 [Example 66, (R)-4-((1-benzylpyrrolidin-3-yl)amino)-3-chloro-N-(1,2,4-thiadiazol-5-yl)benzenesulfonamide 2,2,2-trifluoroacetate] | 0.148 | 5.51 | > 30 | 0.144 |
| O=S(=O)(Nc1ncns1)c1ccc(NC2CCN(Cc3ccccc3)CC2)c(Cl)c1 [Example 46, 4-((1-benzylpiperidin-4-yl)amino)-3-chloro-N-(1,2,4-thiadiazol-5-yl)benzenesulfonamide 2,2,2-trifluoroacetate] | 0.731 | 4.13 | > 30 | 0.278 |
| Cc1cc(S(=O)(=O)Nc2ccsn2)c(F)cc1N(C)[C@H]1CCN(Cc2ccccc2)C1 [Example 277, (S)-4-((1-benzylpyrrolidin-3-yl)(methyl)amino)-2-fluoro-N-(isothiazol-3-yl)-5-methylbenzenesulfonamide 2,2,2-trifluoroacetate] | 0.153 | 24.9 | > 30 | 0.027 |
| Cc1cc(S(=O)(=O)Nc2cscn2)c(F)cc1N(C)[C@H]1CCN(Cc2ccccc2)C1 [Example 101, (S)-4-((1-benzylpyrrolidin-3-yl)(methyl)amino)-2-fluoro-5-methyl-N-(thiazol-4-yl)benzenesulfonamide formate] | 0.272 |  |  | 0.054 |
| CN(c1cc(F)c(S(=O)(=O)Nc2cscn2)cc1Cl)[C@H]1CCN(Cc2ccc(Cl)cc2)C1 [Example 188, (S)-5-chloro-4-((1-(4-chlorobenzyl)-pyrrolidin-3-yl)(methyl)amino)-2-fluoro-N-(thiazol-4-yl)benzene-sulfonamide] | 4.15 | 3.25 | 8.24 |  |
| CC[C@H](c1ccccc1)N1CC[C@H](N(C)c2cc(F)c(S(=O)(=O)Nc3cscn3)cc2Cl)C1 [Example 243, 5-chloro-2-fluoro-4-(methyl((S)-1-((R)-1-phenylpropyl)pyrrolidin-3-yl)amino)-N-(thiazol-4-yl)benzenesulfonamide] | 1.06 | 13.1 | 25.7 |  |
| CN(c1cc(F)c(S(=O)(=O)Nc2cscn2)cc1Cl)[C@H]1CCN(Cc2cccc(Br)n2)C1 [Example 178, (S)-4-((1-((6-bromopyridin-2-yl)methyl)pyrrolidin-3-yl)(methyl)amino)-5-chloro-2-fluoro-N-(thiazol-4-yl)benzene-sulfonamide] | 1.09 | 12.9 | 16 |  |
| Cc1cc(C)cc(CN2CCC(Oc3ccc(S(=O)(=O)Nc4nccs4)cc3Cl)CC2)c1 [Example 94, 3-chloro-4-(1-(3,5-dimethylbenzyl)piperidin-4-yloxy)-N-(thiazol-2-yl)benzenesulfonamide] | 3.44 | 11.4 | 7.62 |  |
| Cc1c(OC2CCN(Cc3ccccc3)CC2)cc(F)c(S(=O)(=O)Nc2nccs2)c1F [Example 223, 4-((1-benzylpiperidin-4-yl)oxy)-2,6-difluoro-3-methyl-N-(thiazol-2-yl)benzenesulfonamide 2,2,2-trifluoroacetate] | 0.009 | 2.58 | 23.2 |  |
| CN(c1cc(F)c(S(=O)(=O)Nc2cscn2)c(F)c1)[C@H]1CCN(Cc2cccc(C(F)F)c2)C1 [Example 287, (S)-4-((1-(3-(difluoromethyl)benzyl)pyrrolidin-3-yl)(methyl)amino)-2,6-difluoro-N-(thiazol-4-yl)benzenesulfonamide 2,2,2-trifluoroacetate] | 6.67 | 7.81 | 8.26 |  |
| COc1cccc(CN2CCC(Oc3ccc(S(=O)(=O)Nc4nccs4)cc3Cl)CC2)c1 [Example 84, 3-chloro-4-(1-(3-methoxybenzyl)piperidin-4-yloxy)-N-(thiazol-2-yl)benzenesulfonamide] | 0.525 | 6 | 3.54 |  |
| Cc1cc(S(=O)(=O)Nc2cscn2)c(F)cc1N[C@@H]1CCN(Cc2ccccc2)C1 [Example 271, (R)-4-((1-benzylpyrrolidin-3-yl)amino)-2-fluoro-5-methyl-N-(thiazol-4-yl)benzenesulfonamide formate] | 4.09 | 8.7 | 8.18 |  |
